Data published in the NIST ThermoML archive (doi:10.1016/j.jct.2012.08.030).
Numbers after ± are expanded uncertainties.

Key:
[1] = xn = mol fraction of the nth substance listed; details: 101.3 kPa, Liquid; for speed of sound: Sing-around technique in a fixed-path interferometer; for mass density: Vibrating tube method
[2] = refractive index (Na D-line) (dimensionless); xn = mol fraction of the nth substance listed; details: 101.3 kPa, Liquid, Standard Abbe refractometry

CCCCn1cc[n+](C)c1.COS(=O)(=O)[O-] [1-butyl-3-methylimidazolium methyl sulfate] + CCCO
Details | mass density, [1] [kg/m3] | refractive index, [2] | speed of sound, [1] [m/s]
298.15 K, x1 = 0.0482 | 852.432 ± 0.25 | 1.39591 ± 0.00033 | 1242.8 ± 0.89
298.15 K, x1 = 0.0965 | 896.455 ± 0.22 | 1.40632 ± 0.00034 | 1276 ± 0.99
298.15 K, x1 = 0.1937 | 967.583 ± 0.26 | 1.42298 ± 0.00037 | 1338.1 ± 1.2
298.15 K, x1 = 0.2929 | 1023.11 ± 0.37 | 1.43588 ± 0.0004 | 1394.2 ± 1.4
298.15 K, x1 = 0.3903 | 1066.53 ± 0.56 | 1.44583 ± 0.00043 | 1443.9 ± 1.6
298.15 K, x1 = 0.4958 | 1104.3 ± 0.81 | 1.45448 ± 0.00047 | 1491.7 ± 1.9
298.15 K, x1 = 0.59 | 1132.04 ± 1.1 | 1.46078 ± 0.0005 | 1529.8 ± 2.1
298.15 K, x1 = 0.6907 | 1156.89 ± 1.4 | 1.46636 ± 0.00054 | 1566.3 ± 2.4
298.15 K, x1 = 0.7981 | 1179.34 ± 1.9 | 1.47134 ± 0.00059 | 1601.1 ± 2.6
298.15 K, x1 = 0.8932 | 1196.47 ± 2.3 | 1.47515 ± 0.00063 | 1629 ± 2.8
298.15 K, x1 = 0.951 | 1205.24 ± 2.6 | 1.4776 ± 0.00065 | 1643.1 ± 3
298.15 K, x1 = 1 | 1212.06 ± 2.8 | 1.47824 ± 0.00068 | 1654.6 ± 3.1
303.15 K, x1 = 0.0482 | 848.503 ± 0.25 | 1.39407 ± 0.00033 | 1227 ± 0.89
303.15 K, x1 = 0.0965 | 892.596 ± 0.22 | 1.40459 ± 0.00034 | –
303.15 K, x1 = 0.1937 | 963.817 ± 0.26 | 1.42138 ± 0.00037 | 1323.8 ± 1.2
303.15 K, x1 = 0.2929 | 1019.43 ± 0.37 | 1.43433 ± 0.0004 | 1380.5 ± 1.4
303.15 K, x1 = 0.3903 | 1062.93 ± 0.55 | 1.44433 ± 0.00043 | 1430.6 ± 1.6
303.15 K, x1 = 0.4958 | 1100.77 ± 0.81 | 1.45302 ± 0.00047 | 1478.8 ± 1.9
303.15 K, x1 = 0.59 | 1128.56 ± 1.1 | 1.45937 ± 0.0005 | 1517.2 ± 2.1
303.15 K, x1 = 0.6907 | 1153.44 ± 1.4 | 1.46499 ± 0.00054 | 1553.9 ± 2.4
303.15 K, x1 = 0.7981 | 1175.92 ± 1.9 | 1.46997 ± 0.00059 | 1588.9 ± 2.6
303.15 K, x1 = 0.8932 | 1192.93 ± 2.3 | 1.47378 ± 0.00063 | 1616.9 ± 2.8
303.15 K, x1 = 0.951 | 1201.87 ± 2.6 | 1.47628 ± 0.00065 | 1630.9 ± 3
303.15 K, x1 = 1 | 1208.7 ± 2.8 | 1.47704 ± 0.00068 | 1642.2 ± 3.1
308.15 K, x1 = 0.0482 | 844.545 ± 0.25 | 1.39212 ± 0.00033 | 1211.1 ± 0.88
308.15 K, x1 = 0.0965 | 888.716 ± 0.22 | 1.40276 ± 0.00034 | 1245.5 ± 0.98
308.15 K, x1 = 0.1937 | 960.044 ± 0.26 | 1.41966 ± 0.00037 | 1309.3 ± 1.2
308.15 K, x1 = 0.2929 | 1015.75 ± 0.36 | 1.43273 ± 0.0004 | 1366.6 ± 1.4
308.15 K, x1 = 0.3903 | 1059.34 ± 0.55 | 1.4428 ± 0.00043 | 1417.3 ± 1.6
308.15 K, x1 = 0.4958 | 1097.25 ± 0.8 | 1.45154 ± 0.00047 | 1465.8 ± 1.9
308.15 K, x1 = 0.59 | 1125.08 ± 1.1 | 1.45793 ± 0.0005 | 1504.5 ± 2.1
308.15 K, x1 = 0.6907 | 1150 ± 1.4 | 1.46358 ± 0.00054 | 1541.4 ± 2.4
308.15 K, x1 = 0.7981 | 1172.52 ± 1.8 | 1.46856 ± 0.00059 | 1576.5 ± 2.6
308.15 K, x1 = 0.8932 | 1189.33 ± 2.3 | 1.47238 ± 0.00063 | 1604.7 ± 2.8
308.15 K, x1 = 0.951 | 1198.5 ± 2.6 | 1.47491 ± 0.00065 | 1618.7 ± 3
308.15 K, x1 = 1 | 1205.35 ± 2.8 | 1.47577 ± 0.00068 | 1630 ± 3.1
313.15 K, x1 = 0.0482 | 840.564 ± 0.25 | 1.39019 ± 0.00033 | 1195.2 ± 0.88
313.15 K, x1 = 0.0965 | 884.815 ± 0.23 | 1.4009 ± 0.00034 | 1230.2 ± 0.98
313.15 K, x1 = 0.1937 | 956.26 ± 0.26 | 1.41794 ± 0.00037 | 1294.9 ± 1.2
313.15 K, x1 = 0.2929 | 1012.08 ± 0.36 | 1.43111 ± 0.0004 | 1352.8 ± 1.4
313.15 K, x1 = 0.3903 | 1055.75 ± 0.54 | 1.44126 ± 0.00043 | 1404 ± 1.6
313.15 K, x1 = 0.4958 | 1093.74 ± 0.8 | 1.45008 ± 0.00047 | 1453 ± 1.9
313.15 K, x1 = 0.59 | 1121.62 ± 1.1 | 1.45649 ± 0.0005 | 1492 ± 2.1
313.15 K, x1 = 0.6907 | 1146.58 ± 1.4 | 1.46215 ± 0.00054 | 1529.1 ± 2.4
313.15 K, x1 = 0.7981 | 1169.13 ± 1.8 | 1.46715 ± 0.00059 | 1564.4 ± 2.6
313.15 K, x1 = 0.8932 | 1185.78 ± 2.3 | 1.4709 ± 0.00063 | 1592.5 ± 2.8
313.15 K, x1 = 0.951 | 1195.15 ± 2.5 | 1.47354 ± 0.00065 | 1606.6 ± 3
313.15 K, x1 = 1 | 1202.01 ± 2.8 | 1.47443 ± 0.00068 | 1617.9 ± 3.1
